We go through three compounds from patent US20180243309A1, “TOPICAL ANTIVIRAL COMPOSITIONS” (Topical Remedy, LLC, priority 2015, published 2018).

For test [1], the system named is HSV-1, strain E-377. The test is described as follows: Orofacial HSV-1 infection in SKH-1 mice: virus titers of orofacial swabs (CPE microtiter assay on rabbit kidney cells). Format: in vivo. The settings on record: for mean virus titer ± standard deviation, Day 4 am: Day 4, am (before treatments); for mean virus titer ± standard deviation, Day 4 pm: Day 4, pm (after treatments); for mean virus titer ± standard deviation, Day 5 am: Day 5, am (before treatments); for mean virus titer ± standard deviation, Day 5 pm: Day 5, pm (after treatments); for mean virus titer ± standard deviation, Day 6 am: Day 6, am (before treatments); for mean virus titer ± standard deviation, Day 6 pm: Day 6, pm (after treatments); for Mean Peak Titer Score ± SD: orofacial swabs; for #Virus Positive/#Inoculated / Titer-Day AUC: orofacial swabs days 2-8 and 10. The text has this: (§1) To determine the effect of treatment on cutaneous viral replication, severity of lesions is scored from days 1-21 and swabs of the snout area are taken on days 2-8 and 10. […] All drug studies are placebo or vehicle controlled.
(§2) During the post-challenge phase, animals were examined daily and lesions scored for severity and samples taken for quantitation of orofacial HSV replication.
To determine the effect of treatment on HSV-1 replication on the orofacial area, swabs of the area were obtained on days 2 through 8 and 10 post-viral challenge. On treatment days, swabs were obtained at least 3 hours following the final treatment. Swabs were placed in tubes containing 2.0 ml of media, vortexed, and frozen at −70° C. until titrated for HSV. […] Wells were seeded with 10^4 cells per well and inoculated in triplicate 24 h later. The plates were read under a microscope five days after viral inoculation and the presence/absence of viral CPE in each well noted. A TCID50 value was calculated using Reed-Muench Methodology.
To determine the effect of treatment on HSV-1 replication from the lesions on the orofacial area, swabs of the area were obtained at least 3 hours after treatment on days when mice are treated. […] Samples were taken before treatments and after treatments.
Mortality rates were analyzed by Fisher's exact test and mean day of death using Mann-Whitney U rank sum test. Infection rates, peak lesion scores, peak virus titers, areas under the curve for virus titer-day and lesion score-day between control and treated animals will be compared using the Mann-Whitney U Rank Sum Test. A P-value of 0.05 or less will be considered significant.
In addition, the immediate post treatment effects on lesion derived virus titers was analyzed using the mixed linear model with a P-value of 0.05 or less considered as significant. This difference in virus recovered from animals before and after treatments for all treatment days was used to calculate significance.

In test [2] the test system is HSV-1, strain E-377. The test is described as follows: Orofacial HSV-1 infection in SKH-1 mice: mortality and facial lesion scores. Format: in vivo. The conditions noted are these: for Mortality Number: dead/total, topical 3 times daily Days 4-6, 20 min intervals, acyclovir 3 times daily for 5 days from 24 h after inoculation; for #With Lesions/#Inoculated: facial lesions, days 1-21; for Mean Peak Lesion Score ± SD: lesion score scale 0.0-5.0. On the procedure:
In this model, mice are anesthetized with a ketamine/xylazine mixture and implanted with an electronic microchip for individual identification. […] This procedure is performed carefully to prevent bleeding. […] Following this procedure, animals are returned to their cages and observed until recovery.
as §1, §2
Female SKH-1 mice (Charles River Laboratories, Raleigh, N.C.) were assigned randomly to groups. Each efficacy group contained 10 animals. Animals were anesthetized with ketamine-xylazine, implanted with an identification microchip, and has the orofacial area abraded using a Dremmel tool with an engraving bit.
To determine the effect of treatment on the development and severity of lesions, severity of lesions were graded on a 0.0 to 5.0 scale in 0.5 increments, according to the scale below. The presence or absence of lesions and severity of lesions was recorded daily beginning day 1 through day 21 post-challenge. Animals were observed daily for signs of systemic viral disease.
Mortality rates were analyzed by Fisher's exact test and mean day of death using Mann-Whitney U rank sum test. Infection rates, peak lesion scores, peak virus titers, areas under the curve for virus titer-day and lesion score-day between control and treated animals will be compared using the Mann-Whitney U Rank Sum Test.

[3] abbreviates: same regimens as Mortality Number.

Turning to Glycolic acid [Compound 2], in the test on HSV-1, strain E-377 [1], the “mean virus titer ± standard deviation, Day 4 am” value is 4.2 ± 1.3^ TCID50; the “mean virus titer ± standard deviation, Day 4 pm” value is given as 4.2 ± 1.6 TCID50; the “mean virus titer ± standard deviation, Day 5 am” value came to 5.5 ± 0.4 TCID50; the “mean virus titer ± standard deviation, Day 5 pm” value is 5.1 ± 0.6 TCID50. In the test with HSV-1, strain E-377 [1], the “mean virus titer ± standard deviation, Day 6 am” value is on record as 5.2 ± 0.6 TCID50; the “mean virus titer ± standard deviation, Day 6 pm” value was 4.4 ± 0.5 TCID50; the “Mean Peak Titer Score ± SD” value amounted to 5.3 ± 0.5; the “#Virus Positive/#Inoculated” value is reported as 10/10. Also, the “Titer-Day AUC” value in the test with HSV-1, strain E-377 [1] was found to be 33.3.
In the case of Ethyl alcohol [Compound 1], in the test with HSV-1, strain E-377 [2], the “Mortality Number” value is 8/10, the “#With Lesions/#Inoculated” value is on record as 10/10 and the “Mean Peak Lesion Score ± SD” value is 3.0 ± 0.0↑. Further, the “Lesion-Day AUC” value in the test on HSV-1, strain E-377 [2] (lesion score scale 0.0-5.0, days 1-21) is on record as 41.1↑. In the test on HSV-1, strain E-377 [2] (setting [3]), the “MDD (Mean Day of Death)” value is 7.9 and the “Mortality Percent” value was determined as 80%. For the same compound, in the test on HSV-1, strain E-377 [1], the “mean virus titer ± standard deviation, Day 4 am” value is on record as 5.1 ± 1.0^ TCID50; the “mean virus titer ± standard deviation, Day 4 pm” value is 5.1 ± 1.5 TCID50; the “mean virus titer ± standard deviation, Day 5 am” value was determined as 5.7 ± 0.4 TCID50; the “mean virus titer ± standard deviation, Day 5 pm” value amounted to 5.6 ± 0.6 TCID50. Further, in the test with HSV-1, strain E-377 [1], the “mean virus titer ± standard deviation, Day 6 am” value is listed as 4.9 ± 0.7 TCID50; the “mean virus titer ± standard deviation, Day 6 pm” value is recorded as 4.0 ± 0.8 TCID50; the “Mean Peak Titer Score ± SD” value was determined as 6.0 ± 0.2; the “#Virus Positive/#Inoculated” value is 10/10. Also, the “Titer-Day AUC” value with HSV-1, strain E-377 [1] is recorded as 32.2.
Regarding `Nc1nc2c(ncn2COCCO)c(=O)[nH]1` [5% Acyclovir, Acyclovir, reference compound], in the test on HSV-1, strain E-377 [2], the “Mortality Number” value is recorded as 0/10, the “#With Lesions/#Inoculated” value is 0/10 and the “Mean Peak Lesion Score ± SD” value is on record as 0.0 ± 0.0. Also, in the test with HSV-1, strain E-377 [2] (setting [3]), the “Mortality Percent” value is 0%. Moreover, in the test with HSV-1, strain E-377 [1], the “mean virus titer ± standard deviation, Day 4 am” value is reported as 0.2 ± 0.8^ TCID50; the “mean virus titer ± standard deviation, Day 4 pm” value was determined as 0.0 ± 0.0 TCID50; the “mean virus titer ± standard deviation, Day 5 am” value was 0.0 ± 0.0 TCID50; the “mean virus titer ± standard deviation, Day 5 pm” value was 0.0 ± 0.0 TCID50. Also, in the test with HSV-1, strain E-377 [1], the “mean virus titer ± standard deviation, Day 6 am” value was 0.0 ± 0.0 TCID50; the “mean virus titer ± standard deviation, Day 6 pm” value is listed as 0.0 ± 0.0 TCID50; the “Mean Peak Titer Score ± SD” value is listed as 0.6 ± 0.1; the “#Virus Positive/#Inoculated” value is on record as 3/10.
